Read-outs that look alike come from different tables or passages of the source.
Legend:
[1] = target: T1, glutathione-S-transferase (GST) tagged LXRbeta LBD (ligand binding domain) (Homo sapiens, UniProt P55055); assay: LanthaScreen TR-FRET Liver X Receptor Coactivator Assay, LXR beta; format: biochemical; settings: for EC50: potency (Inflection Point) of compound-induced co-activator recruitment, TR-FRET; for Emax: read-out: LXR beta actiivty at max dose (%)
T1 construct: purchased Invitrogen pv4658.pps
T1 sequence (P55055 222-460 limits assumed): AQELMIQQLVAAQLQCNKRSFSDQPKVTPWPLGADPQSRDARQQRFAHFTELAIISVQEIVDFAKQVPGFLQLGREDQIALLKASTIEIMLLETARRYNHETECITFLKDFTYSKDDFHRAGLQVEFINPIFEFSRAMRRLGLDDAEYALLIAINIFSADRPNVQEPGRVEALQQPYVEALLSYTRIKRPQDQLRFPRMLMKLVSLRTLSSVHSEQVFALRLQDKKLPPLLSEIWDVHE
Procedure: (§1) While running the LanthaScreen™ TR-FRET Liver X Receptor Coactivator Assay, LXR alpha-LBD or LXR beta-LBD was added to ligand test compounds followed by addition of a mixture of a fluorescein-labelled coactivator peptide and terbium-conjugated anti-GST antibody. After an incubation period at room temperature, TR-FRET (time-resolved fluorescence resonance energy transfer) was measured using a filter-based instrument capable of TR-FRET, e.g. PerkinElmer Envision.

[2] = target: T2, glutathione-S-transferase (GST) tagged LXRalpha LBD (ligand binding domain) (Homo sapiens, UniProt Q13133); assay: LanthaScreen TR-FRET Liver X Receptor Coactivator Assay, LXR alpha; format: biochemical; settings: for EC50 / LXR alpha IP (nM): potency (Inflection Point) of compound-induced co-activator recruitment, TR-FRET; for Emax: read-out: LXR alpha actiivty at max dose (%)
T2 construct: purchased Invitrogen pv4655
T2 sequence (Q13133 209-447 limits assumed): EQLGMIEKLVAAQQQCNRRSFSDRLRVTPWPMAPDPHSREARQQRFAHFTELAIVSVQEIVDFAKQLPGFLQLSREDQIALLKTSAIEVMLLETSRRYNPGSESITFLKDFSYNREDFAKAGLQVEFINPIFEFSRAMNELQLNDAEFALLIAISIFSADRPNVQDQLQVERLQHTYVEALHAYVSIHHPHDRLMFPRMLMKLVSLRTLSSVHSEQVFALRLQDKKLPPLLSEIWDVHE
Procedure: as §1

[3] = efficacy (Emax) in relation to reference dual agonist T0901317

Structure (SMILES)	EC50 ([1]; LXR beta IP (nM)) [nM]	Emax [1] [%]	EC50 ([2]; LXR alpha IP (nM)) [nM]	Emax [2] [%]	LXR beta actiivty at max dose (%) [1, 3] [%]	EC50 ([1]; read-out: LXR beta IP) [nM]	Emax [2, 3] [%]	EC50 ([2]; read-out: LXR alpha IP) [nM]	LXR alpha actiivty at max dose (%) [2, 3] [%]	Emax [1, 3] [%]	LXR alpha IP (nM) [2]
CN(C)C(=O)c1ccc(CCCC2CCN(C(=O)C(O)(c3ccccc3)C(F)(F)F)CC2)cc1Cl (single isomer, unassigned) [Example 15-1, (R or S)-2-chloro-N,N-dimethyl-4-(3-(1-(3,3,3-trifluoro-2-hydroxy-2-phenylpropanoyl)piperidin-4-yl)propyl)benzamide]	46	41	1310	19	–	–	–	–	–	–	–
CN(C)C(=O)c1ccc(CCCCC2CCN(C(=O)C(O)(c3ccccc3)C(F)(F)F)CC2)cc1Cl (single isomer, unassigned) [Example 15-2, (R or S)-2-chloro-N,N-dimethyl-4-(4-(1-(3,3,3-trifluoro-2-hydroxy-2-phenylpropanoyl)piperidin-4-yl)butyl)benzamide]	–	–	–	–	95	28	20	623	–	–	–
CN(C)C(=O)c1ccc(CCCCC2CCN(C(=O)C(O)(c3ccccc3)C(F)(F)F)CC2)cc1Cl (single isomer, unassigned) [Example 15-3, (S or R)-2-chloro-N,N-dimethyl-4-(4-(1-(3,3,3-trifluoro-2-hydroxy-2-phenylpropanoyl)piperidin-4-yl)butyl)benzamide]	–	–	–	–	116	31	–	846	36	–	–
COc1cccc(C(O)(C(=O)N2CCC(CCCCCc3ccc(C(=O)N(C)C)c(Cl)c3)CC2)C(F)(F)F)c1 (single isomer, unassigned) [Example 15-5, (R or S)-2-chloro-N,N-dimethyl-4-(5-(1-(3,3,3-trifluoro-2-hydroxy-2-(3-methoxyphenyl)propanoyl)piperidin-4-yl)pentyl)benzamide]	–	–	–	–	–	16	22	516	–	75	–
CNC(=O)c1ccc(CCCCCC2CCN(C(=O)C(O)(c3cccc(OC)c3)C(F)(F)F)CC2)cc1Cl (single isomer, unassigned) [Example 15-6, (R or S)-2-chloro-N-methyl-4-(5-(1-(3,3,3-trifluoro-2-hydroxy-2-(3-methoxyphenyl)propanoyl)piperidin-4-yl)pentyl)benzamide]	–	–	–	–	–	6	27	381	–	96	–
CNC(=O)c1ccc(CCCCCC2CCN(C(=O)C(O)(c3ccccc3)C(F)(F)F)CC2)cc1Cl (single isomer, unassigned) [Example 15-7, (R or S)-2-chloro-N-methyl-4-(5-(1-(3,3,3-trifluoro-2-hydroxy-2-phenylpropanoyl)piperidin-4-yl)pentyl)benzamide]	–	–	–	–	–	6	40	327	–	93	–
CN(C)C(=O)c1ccc(CCCCCC2CCN(C(=O)C(O)(c3ccccc3)C(F)(F)F)CC2)cc1Cl (single isomer, unassigned) [Example 15-8, (R or S)-2-chloro-N,N-dimethyl-4-(5-(1-(3,3,3-trifluoro-2-hydroxy-2-phenylpropanoyl)piperidin-4-yl)pentyl)benzamide]	–	–	–	–	–	9	–	236	29	79	–
CN(C)C(=O)c1ccc(CCCCCC2CCN(C(=O)C(O)(c3ccccc3)C(F)(F)F)CC2)cc1Cl (single isomer, unassigned) [Example 15-9, (S or R)-2-chloro-N,N-dimethyl-4-(5-(1-(3,3,3-trifluoro-2-hydroxy-2-phenylpropanoyl)piperidin-4-yl)pentyl)benzamide]	–	–	–	–	84	240	–	–	4	–	No IP
COc1cccc([C@@](O)(C(=O)N2CCC3(CC2)CC(CCCc2ccc(C(=O)N(C)C)c(Cl)c2)C3)C(F)(F)F)c1 (single isomer, unassigned) [Example 16-1, 2-chloro-N,N-dimethyl-4-(3-(7-((R or S)-3,3,3-trifluoro-2-hydroxy-2-(3-methoxyphenyl)propanoyl)-7-azaspiro 13.51 nonan-2-yl)propyl)benzamide]	132	100	1540	19	–	–	–	–	–	–	–
CN(C)C(=O)c1ccc(CCCC2CC3(CCN(C(=O)C(O)(c4ccccc4)C(F)(F)F)CC3)C2)cc1Cl (single isomer, unassigned) [Example 16-2, 2-chloro-N,N-dimethyl-4-(3-(7-((R or S)-3,3,3-trifluoro-2-hydroxy-2-phenylpropanoyl)-7-azaspiro[3.5]nonan-2-yl)propyl)benzamide]	–	–	–	–	–	59	29	772	–	113	–
CN(C)C(=O)c1ccc(CCCC2CC3(CCN(C(=O)C(O)(c4cccc(OC(F)(F)F)c4)C(F)(F)F)CC3)C2)cc1Cl (single isomer, unassigned) [Example 16-4, 2-chloro-N,N-dimethyl-4-(3-(7-((S or R)-3,3,3-trifluoro-2-hydroxy-2-(3-(trifluoromethoxy)phenyl)propanoyl)-7-azaspiro[3.5]nonan-2-yl)propyl)benzamide]	–	–	–	–	–	58	8	–	–	96	No IP
COc1cccc([C@@](O)(C(=O)N2CCC3(CC2)C[C@H]3CCCc2ccc(C(=O)N(C)C)c(Cl)c2)C(F)(F)F)c1 (single isomer, unassigned) [Example 17-1, 2-chloro-N,N-dimethyl-4-(3-((R or S)-6-((R or S)-3,3,3-trifluoro-2-hydroxy-2-(3-methoxyphenyl)propanoyl)-6-azaspiro[2.5]octan-1-yl)propyl)benzamide]	–	–	–	–	–	12	0	–	–	51	No IP
CN(C)C(=O)c1ccc(CCC[C@H]2CC23CCN(C(=O)[C@](O)(c2ccccc2)C(F)(F)F)CC3)cc1Cl (single isomer, unassigned) [Example 17-2, 2-chloro-N,N-dimethyl-4-(3-((S or R)-6-((R or S)-3,3,3-trifluoro-2-hydroxy-2-phenylpropanoyl)-6-azaspiro[2.5]octan-1-yl)propyl)benzamide]	–	–	–	–	–	25	35	395	–	128	–
COc1cccc([C@@](O)(C(=O)N2CCC3(CC2)C[C@H]3CCCc2ccc(C(=O)NC3CC3)c(Cl)c2)C(F)(F)F)c1 (single isomer, unassigned) [Example 17-3, 2-chloro-N-cyclopropyl-4-(3-((R or S)-6-((R or S)-3,3,3-trifluoro-2-hydroxy-2-(3-methoxyphenyl)propanoyl)-6-azaspiro[2.5]octan-1-yl)propyl)benzamide]	–	–	–	–	–	19	8	–	–	43	No IP
COc1cccc(C(O)(C(=O)N2CCC3(CCC(Cc4ccc(C(=O)N(C)C)c(Cl)c4)CC3)CC2)C(F)(F)F)c1 (single isomer, unassigned) [Example 18-1, 2-chloro-N,N-dimethyl-4-((3-((R or S)-3,3,3-trifluoro-2-hydroxy-2-(3-methoxyphenyl)propanoyl)-3-azaspiro[5.5]undecan-9-yl)methyl)benzamide]	72	65	–	–	–	–	21	739	–	–	–
COc1cccc(C(O)(C(=O)N2CCC3(CCC(Sc4ccc(C(=O)N(C)C)c(Cl)c4)CC3)CC2)C(F)(F)F)c1 (single isomer, unassigned) [Example 19-1, 2-chloro-N,N-dimethyl-4-(3-((R or S)-3,3,3-trifluoro-2-hydroxy-2-(3-methoxyphenyl)propanoyl)-3-azaspiro[5.5]undecan-9-ylthio)benzamide]	58	101	–	–	–	–	23	1060	–	–	–
CN(C)C(=O)c1ccc(SC2CCC3(CC2)CCN(C(=O)C(O)(c2cc(Cl)cc(Cl)c2)C(F)(F)F)CC3)cc1Cl (single isomer, unassigned) [Example 19-2, 2-chloro-4-(3-((R or S)-2-(3,5-dichlorophenyl)-3,3,3-trifluoro-2-hydroxypropanoyl)-3-azaspiro[5.5]undecan-9-ylthio)-N,N-dimethylbenzamide]	–	–	–	–	–	38	8	–	–	74	No IP

Source: patent publication US10894775B2, “Piperidine derivatives as liver X receptor beta agonists, compositions, and their use” (Merck Sharp & Dohme Corp., priority 2016, dated 2021)
